# In a melting point compilation (Tetko et al.; mined from patent text by program, amines drawn as free bases though some values may be those of a salt):
row,Compound,melting point [°C]
1,BrCCCCOc1ccc(OCCCCBr)cc1,89 to 91
2,Cc1cc(Br)cnc1CCCCNc1ncc(Cc2cccnc2)cc1N,85 to 87
3,COc1ccc(C=Cc2nnc(C(F)(F)F)o2)cc1,117 to 118
4,Cc1ccc(C(c2ccc(C)cc2)N2CCCC2)cc1,61 to 63
5,CCOC(=O)C=Cc1cc(C=CC(=O)OC(C)(C)C)cc(Oc2cccnc2)c1,116 to 118
6,COc1ccc2c(c1)CCN(C(C)=O)CC2,89 to 90
7,Cc1cc(C2=NOC(c3cc(Cl)cc(Cl)c3)(C(F)(F)F)C2)ccc1C(=O)NC1CSC1 (centres undefined),158 to 159
8,Nc1ncnc2c1ncn2Cc1oc2ccccc2c(=O)c1-c1ccccc1F,202 to 205
9,O=C(O)Cc1csc(-c2cccc(O)c2)n1,172 to 174
10,CC(C)CCS(=O)(=O)NC(=O)CCc1cc(OC(C)C)nn1Cc1ccc(Cl)cc1Cl,143 to 145
11,COc1cc(C=CC(=O)c2ccc(N(C)C)cc2)cc(OC)c1,155 to 156
12,COC(=O)c1nc(N(C)C2CCCCC2)ccc1Oc1nc(OC)cc(OC)n1,116 to 118
13,COC(=O)c1sc(S(C)(=O)=O)cc1O,138 to 140
14,CN1Cc2c(-c3nc(CNCc4ccccc4)no3)ncn2-c2ccccc2C1=O,195 to 198
15,O=C(Nc1cccnc1)c1ccc(OC(F)F)c2oc3ccccc3c12,209 to 211
16,COc1ccc(C(=O)O)c2c1oc1ccccc12,280
17,CCOC(=O)c1c(Oc2cccc(Cl)c2)c2cc(C(c3ccc(Cl)cc3)c3cnc(-c4ccccc4)[nH]3)ccc2[nH]c1=O (centres undefined),189
18,CC(C)(C)[Si](C)(C)OCCc1c(N)nc(SCc2ccc3ccccc3c2)nc1O,156 to 158
19,CC(C)C(c1ccc(O)cc1)N1CCOCC1 (centres undefined),142 to 143
20,CCOC(=O)c1sccc1S(=O)(=O)NC(=O)Nc1nc(C)nc(OC)n1,166
21,COc1cc2c(cc1Br)C(c1ccccc1Cl)=NC1=C(C)NNC1=N2,210 to 211
22,O=C(Nc1noc2ccccc12)N1CCN(c2nc(-c3ccccn3)ns2)CC1,222 to 223
23,Fc1cc(Cl)ccc1-n1nc2c(c1Cl)CCCC2,82 to 85
24,CCCCC(C(=O)O)C1=C(c2ccccc2)c2ccccc2OC1 (centres undefined),117 to 119

row,Compound,melting point [°C]
1,O=[N+]([O-])c1cccc(-c2nc(-c3ccccc3)cc3cccnc23)c1,172 to 175
2,CC(C)(C)OC(=O)[C@H](Cc1ccccc1)NC(=O)CNC1Cc2ccccc2C1,117 to 120
3,CCOP(=O)(Cc1cc(=O)[nH]c2cc(Cl)c(Cl)cc12)OCC,219 to 222
4,CC1(C)C(=O)Nc2cc(-c3nc4ccccc4[nH]3)ccc21,326 to 330
5,CN(C)C(=O)c1nn(-c2ccc(Cl)cc2)c(=O)c2c(N)scc12,242 to 244
6,CC1(C)CC(Oc2nc(Cl)nc(N3C(C)(C)CCCC3(C)C)n2)CC(C)(C)N1O,152 to 153
7,Fc1cccc(/C=C/C2=CCN(Cc3c[nH]c4ncccc34)CC2)c1,199 to 201
8,O=P1(c2ccc(F)cc2)c2ccccc2CN1c1ccccc1 (centres undefined),119 to 120
9,CCCCCCCC(=O)NCc1ccccc1,76 to 78
10,Cc1c(Cl)ccc(N)c1Cl,56 to 57.5
11,CC(C)(C)c1cc(C=O)ccc1O,142
12,COc1ccc(-c2ccnc3[nH]c4ccccc4c23)cc1,208 to 210
13,COCC(C)Oc1cc(Oc2ccc(S(C)(=O)=O)cc2)cc2cc(C3=NCC(CC(N)=O)S3)[nH]c12 (centres undefined),107 to 112
14,CCC1(C)CC(C)(C)c2cc(O)ccc21 (centres undefined),86
15,COC1CCc2oc3ccc(Br)cc3c(=O)c2C1 (centres undefined),139 to 142
16,Nc1ccccc1C(=O)OC1CCN(Cc2ccccc2)CC1,87 to 88
17,CCOC(=O)c1c(CCc2ccccc2)nc2c(cnn2CC)c1O,153 to 155
18,COc1ccc2cccc(C(CCO)CNC(=O)C3CCC3)c2c1 (centres undefined),113 to 115
19,O=C(NO)[C@H](CNS(=O)(=O)c1ccc(OCc2ccc(Cl)c(Cl)c2)cc1)N1CCCCC1,166
20,CCCC=Cc1ncn2c1CN(C)C(=O)c1cc(F)ccc1-2,150 to 151
21,CCCCc1nccn1-c1nc(Cl)nc2nc[nH]c12,247 to 248
22,CN1C(=O)CC[C@]2(C)c3ccc(-c4ccc(F)c(Cl)c4)cc3CC[C@@H]12,114 to 116
23,CC1Cc2ccccc2NC1C1=NCCN1 (centres undefined),138 to 139
24,Fc1cccc(-c2nc(Nc3ccc(Cl)cc3)c3ccccc3n2)n1,118 to 121

row,Compound,melting point [°C]
1,Cc1sc(CCc2ccc(CCCC3OC(=O)NC3=O)cc2)nc1-c1ccccc1 (centres undefined),111 to 112
2,Cc1cc(OCc2ccc(-c3ccc(OC(F)(F)F)cc3)nc2C)ccc1OC(C)(C)C(=O)O,149 to 151
3,O=C(O)c1ccc(N(CCn2ccnc2)c2ccc(F)cc2)cc1-c1ccc(F)cc1,195 to 200
4,Cn1cc(-c2cccc(O)c2)c(=O)c(C2CCCCC2)c1,155 to 165
5,COc1nc2cc(Br)cc(CNC(=O)C(=O)O)c2nc1OC,> 300
6,COc1ccc(-c2nc(Cl)nc(Cl)n2)cc1,131 to 134
7,Cc1ccc2c(c1C)C(=O)CC2,43 to 44
8,CCCn1c(=O)c2[nH]c(/C=C/c3ccco3)nc2n(CCC)c1=O,258 to 259
9,CC1(C)OCCC(=NO)c2ccccc2NC1=O,205 to 206
10,COc1cc(Br)c2c(c1OC)C(=O)CC2,180 to 182
11,O=c1[nH]c(=O)n(C2CC(F)C(COC(c3ccccc3)(c3ccccc3)c3ccccc3)O2)cc1C#CI (centres undefined),73
12,Cc1ccccc1Sc1cccc2c1OC(=O)C2,108 to 109
13,CCOC(=O)C1CCc2c(sc3nc(CCl)c(Cl)c(-c4ccc(OC)cc4)c23)C1 (centres undefined),113 to 114
14,c1ccc(-n2c3ccccc3c3ccccc32)cc1,96 to 97
15,CNS(=O)(=O)c1sccc1CCl,52 to 53
16,CSC(=O)c1c(C(F)F)nc(C(F)(F)F)c(C(=O)SC)c1N,160 to 161
17,NC(c1ccccc1)c1nc2ccccc2s1 (centres undefined),68 to 70
18,CC(C)C(=O)Oc1c(-c2ccc(-c3ccccc3)cc2)nc2ccc(F)cc2c1C(=O)O,201 to 204
19,C[C@H](NC(=O)[C@H](Cc1ccccc1)NC(=O)OCc1ccccc1)C(=O)O,160 to 164
20,CCOc1ccc(Nc2cc(C)nc3cn[nH]c23)cc1,217
21,N#Cc1cnc2sc(-c3cccc(C=O)c3)cc2c1Nc1cccc2[nH]ccc12,> 245
22,CCOC(=O)c1c(N)nn(-c2c(Cl)cc(C(F)(F)F)cc2Cl)c1N,196 to 197

# More lines, now with the values ahead:
row,melting point [°C],Compound
1,141 to 143,COc1ccc2c(c1)C(=O)N(c1ccc3ccoc3c1)C2
2,141 to 142,O=C1OC(=O)c2c(Sc3ccccc3)c(Sc3ccccc3)c(Sc3ccccc3)c(Sc3ccccc3)c21
3,97 to 99,CC(=O)N(O)Cc1ccc(Oc2ccccn2)cc1
4,176 to 177,Cc1ccc(Cl)cc1NC(=S)Nc1c(C)nn(C)c1C
5,147,O=C(O)C1CSC(c2ccccc2F)N1 (mixture of isomers)
6,205,Cn1cc(C=O)c(=O)c2cc(C(F)(F)F)ccc21
7,56.1 to 58.7,COc1ccccc1C(=O)Nc1ccc(Cl)cc1
8,320 to 324,CCn1ccc(=O)c2cnc(-c3ccc(O)cc3)nc21
9,102,CCC1C(=O)NC1C=COC(C)=O (centres undefined)
10,165,COc1ccc(CCN(C)CCOc2ccc(NC(=O)c3cccc4c(=O)c5ccccc5[nH]c34)cc2)cc1
11,91 to 93,CCNC(=O)C1CN(C(c2ccccc2)c2ccccc2)C1
12,201 to 203,N=C(N)NC(=O)Cn1c(C(=O)c2ccccc2)ccc1-c1ccccc1
13,190 to 191,O=C(O)c1cccc(-c2ccc3c(c2)C(NCc2ccc(Cl)cc2Cl)CC3)c1 (centres undefined)
14,125 to 127,COc1ccnc(CSc2nc3cscc3n2CO)c1
15,146 to 148,CCCCn1c(=O)c2cc(C(=O)OCC)cn2c2ccccc21
16,182,COC(=O)C1=C(C)NC(C)=C(C(=O)OCCN2C(=O)c3ccccc3C2=O)C1c1cccc([N+](=O)[O-])c1 (centres undefined)
17,134 to 136,C[C@H](Nc1nc(C#N)nc(Cl)c1-c1c(F)cc(F)cc1F)C(F)(F)F

row,melting point [°C],Compound
1,155,C[C@H]1CCCC[C@H]1Nc1c(C(N)=O)cnn2cccc12
2,78 to 79,CC/C=C/C(=O)NC(=O)OC(C)(C)C
3,255 to 258,Cc1nc(N)nc(N)c1N1CCN(c2ccc(C(F)(F)F)cc2)CC1
4,72.5 to 73.5,C[C@H](CC(F)(F)F)C(=O)N1C(=O)O[C@@H](c2ccccc2)[C@H]1C
5,208 to 209,Cc1c2c(nn1-c1ccccc1)c(Cl)nc1ccccc12
6,184 to 185,O=C(CCl)Nc1ccc2c(c1NC(=O)c1ccc(F)cc1)C(=O)c1ccccc1C2=O
7,67 to 68,CCCCCC/C=C\CCCCCCCC(=O)N[C@H]1CCCNC(=O)C1
8,133 to 135,Cc1oc(-c2ccc(C(F)(F)F)cc2)nc1-c1cccc(-c2ccc(O)cc2)c1
9,118 to 120,Cc1oc2ccccc2c(=O)c1N
10,190 to 195,CCCCCCC(C(=O)N1CCC[C@H]1C(=O)O)n1cnc(NC(=O)c2ccccc2S(=O)(=O)O)c1 (some centres undefined)
11,142 to 145,CCN1CCC(=O)N(c2cc(Cl)ccc2C)C1=S
12,188 to 190,CCOCc1nc2c(N)nc3cc(-c4cncc(CO)c4)ccc3c2n1CC(C)(C)O
13,207 to 209,C=C(C)Cc1c(O)cc(C)c(NC=O)c1C
14,83 to 85,c1ccc(OC2CN(C(c3ccccc3)c3ccccc3)C2)cc1
15,165 to 166,Cc1ccc(C(=O)[C@H]2C[C@H]2C(=O)O)cc1 (relative stereo)
16,90 to 91,CCOC(=O)/C=C/c1ccc(OCCC2(C)OCCO2)cc1Oc1ncc(C(F)(F)F)cc1Cl
17,129 to 131,O=C(O)C=Cc1ccccc1NC(=O)c1ccc(OCCCCc2ccccc2)cc1
